Here are results for three compounds from ChEMBL document CHEMBL1201862, “PubChem BioAssay data set” (2004).

Activity calls are given as the source filed them. Where only a bound is given, the exact number is not on record here.

The EC50 is the concentration needed to bring the measured effect to its halfway point. A word on the IC50: it is the point on the concentration scale where inhibition reaches its midpoint. A word on the CC50: it is the concentration at which the toxic effect on the cells reaches its halfway point. Broadly, the AC50 is the midpoint of the concentration-response curve, whichever way the signal moves.

One assay has as its target Beta-galactosidase (Escherichia coli, UniProt Q8VNN2). Put plainly: PubChem AID 485352. Type of assay: functional.
The target of assay [1] is T1, Type-1 angiotensin II receptor (Homo sapiens, UniProt P30556).
T1 sequence (P30556 whole entry): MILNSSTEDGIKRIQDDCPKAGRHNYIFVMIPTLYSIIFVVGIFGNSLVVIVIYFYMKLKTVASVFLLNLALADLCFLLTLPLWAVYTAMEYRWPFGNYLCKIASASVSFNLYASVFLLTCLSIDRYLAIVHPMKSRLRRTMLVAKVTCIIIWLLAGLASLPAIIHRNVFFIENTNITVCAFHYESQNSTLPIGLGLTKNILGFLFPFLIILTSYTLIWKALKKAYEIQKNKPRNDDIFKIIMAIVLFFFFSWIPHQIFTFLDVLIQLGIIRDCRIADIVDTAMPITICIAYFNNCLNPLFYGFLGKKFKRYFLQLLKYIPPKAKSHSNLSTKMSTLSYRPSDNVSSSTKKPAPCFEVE
Put plainly: AT1 receptor antagonists, dose response, selectivity assay for APJ receptor antagonist project, cell-based, uHTS hits (AID 463214).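 Also: antagonist potency against angiotensin II stimulated AT1 response.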 In kind it is functional.

For assay [2], the system named is BJ. Put plainly: cytotoxicity toward BJ-TERT fibroblasts, dose response, cell-based, RAS-independent, luminescence (AID 1933). Type of assay: functional. The conditions noted are these: Homo sapiens.
In assay [3] the target is Nucleotide-binding oligomerization domain-containing protein 2 (Homo sapiens, UniProt Q9HC29). Put plainly: NOD2 signaling inhibitors, cell-based, luminescence, uHTS, HEK293 (AID 1566). Type of assay: functional.
Chain of Nucleotide-binding oligomerization domain-containing protein 2 (Q9HC29 whole entry, the tested form may be a part): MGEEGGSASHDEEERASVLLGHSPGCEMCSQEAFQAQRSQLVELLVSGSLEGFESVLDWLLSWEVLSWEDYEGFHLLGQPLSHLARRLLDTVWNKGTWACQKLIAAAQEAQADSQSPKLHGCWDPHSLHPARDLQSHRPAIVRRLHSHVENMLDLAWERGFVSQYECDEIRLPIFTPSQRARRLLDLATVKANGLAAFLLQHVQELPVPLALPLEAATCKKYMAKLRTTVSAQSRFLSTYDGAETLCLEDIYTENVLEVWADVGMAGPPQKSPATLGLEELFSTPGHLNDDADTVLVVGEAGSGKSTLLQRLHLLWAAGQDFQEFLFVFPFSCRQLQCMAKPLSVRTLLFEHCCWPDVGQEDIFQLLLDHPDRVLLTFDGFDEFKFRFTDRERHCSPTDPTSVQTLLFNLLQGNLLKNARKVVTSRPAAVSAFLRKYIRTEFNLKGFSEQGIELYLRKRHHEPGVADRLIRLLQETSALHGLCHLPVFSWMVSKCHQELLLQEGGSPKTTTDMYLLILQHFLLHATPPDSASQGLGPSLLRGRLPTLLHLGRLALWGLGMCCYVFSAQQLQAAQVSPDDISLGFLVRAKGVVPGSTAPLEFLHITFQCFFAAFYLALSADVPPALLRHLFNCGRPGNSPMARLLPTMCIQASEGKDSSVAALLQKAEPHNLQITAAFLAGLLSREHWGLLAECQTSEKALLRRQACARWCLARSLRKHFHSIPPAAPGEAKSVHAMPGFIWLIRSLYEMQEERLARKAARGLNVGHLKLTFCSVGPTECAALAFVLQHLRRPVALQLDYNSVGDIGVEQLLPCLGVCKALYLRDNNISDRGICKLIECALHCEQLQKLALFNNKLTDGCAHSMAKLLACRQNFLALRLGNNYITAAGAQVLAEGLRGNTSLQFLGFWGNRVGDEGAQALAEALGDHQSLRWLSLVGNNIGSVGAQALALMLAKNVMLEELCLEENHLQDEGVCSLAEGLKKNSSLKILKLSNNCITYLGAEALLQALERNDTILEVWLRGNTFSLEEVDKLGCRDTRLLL
Assay [4] is described as follows: THP-1 cell cytotoxicity, dose response, cytotoxicity control for non-replicating M. tuberculosis project (AID 489025). In kind it is functional.
Assay [5] in a line: growth suppression of beta-catenin-knockout colon cells, dose response, cell-based, HCT116, human colon tumor (AID 1045).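 Also: HCT116 colon tumor cells with beta catenin knocked out; cells exposed to compound for 60 hours.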 Type of assay: functional.
The nature of assay [6]: Vero E6 cell cytotoxicity, dose response, cytotoxicity control for non-replicating M. tuberculosis project, secondary assay (AID 492998). In kind it is functional, VeroE6. The conditions noted are these: Vero C1008.
Assay [7] deals with HEK293. Put plainly: NOD2 signaling inhibitors in MDP-stimulated cells, cell-based, uHTS, luminescence (AID 2001). Type of assay: functional. The conditions noted are these: Homo sapiens.
The nature of the next assay: cells. In kind it is functional.
In a further assay the test system is Jurkat. Kind of assay: antigen receptor-induced NF-kB inhibitors, dose response, Jurkat, luciferase reporter, luminescence, B- and T-cell (AID 489004).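 Also: NF-kB luciferase reporter Jurkat cells stimulated with PMA plus ionomycin.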 Type of assay: functional, cell-based. The conditions noted are these: Homo sapiens.
A further assay relates to INS1. Put plainly: beta cell apoptosis inhibitors, cytokine rescue, dose response, luminescence, retest (AID 449756).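 Also: cell death triggered by IL-1 beta plus TNF-alpha plus IFN-gamma mixture; protective hits raise ATP signal compared with cytokine alone wells.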 Type of assay: functional, cell-based. The conditions noted are these: Rattus norvegicus.
Assay [8] is described as follows: Luminescence Cell-Based Dose Response HTS to Identify Inhibitors of 5'UTR Stem-Loop Driven Prion Protein mRNA Translation in H4 Neuroglioblastoma Cells. [Related pubchem assays: 1827 (Project Summary), 1813 (Primary HTS)]. In kind it is functional.
Assay [9] is described as follows: growth suppression of PTEN-null colon cells, dose response, cell-based, HCT116 PTEN knockout (AID 1047).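 Also: HCT116 colon tumor cells with PTEN knocked out; cells exposed to compound for 60 hours before readout; potency for loss of cell viability measured by luminescence.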 In kind it is functional.
A short description of assay [10]: CEM21 lymphoblast cell cytotoxicity, dose response, cytotoxicity control for viral fusion inhibitor project, CellTiter-Glo luminescence, cherry-picked (AID 652042).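 Also: potency for signal decrease meaning cytotoxicity.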 In kind it is functional, cell-based. A general note: Cellular ATP, detected with luciferase, serves as a proxy for viable cell number.
Assay [11] relates to HEK293. Kind of assay: NOD1 signaling inhibitors, primary screen, cell-based, luminescence, uHTS (AID 1578). Type of assay: functional. The conditions noted are these: Homo sapiens.
For assay [12], the system named is HEK293. Put plainly: cells. Type of assay: functional, cell-based. The conditions noted are these: Homo sapiens.
Assay [13] in a line: inhibitors of clade B AD8 Env fusion, dose response, cell-based, cherry-pick (AID 652062).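 Also: luciferase signal from cell-cell fusion driven by HIV-1 clade B AD8 Env; potency is for inhibitors of fusion seen as a drop in luminescence.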 In kind it is functional.
A short description of assay [14]: NIH-3T3 fibroblast cytotoxicity, dose response, cytotoxicity control, cell-based, fluorescence, Alamar Blue, secondary assay (AID 2327).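 Also: NIH-3T3 mouse fibroblasts cultured with fluconazole at 8 µg/mL.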 In kind it is functional. (In general: The colour change of resazurin is a common sign of viable cells or microbes.)
For assay [15], the system named is BJ. Kind of assay: cells. Type of assay: functional, cell-based. The conditions noted are these: Homo sapiens.
For assay [16], the system named is BJ. Kind of assay: cytotoxicity toward Ras-transformed BJeLR fibroblasts, dose response, cell-based, alamar blue fluorescence, cherrypicked samples (AID 2631).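 Also: confirmatory dose-response assay in RAS-dependent BJ fibroblasts engineered with TERT, LT and ST, with cytotoxicity read by fluorescence.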 In kind it is functional. The conditions noted are these: Homo sapiens.
In assay [17] the test system is HEK293. Kind of assay: cells. Type of assay: functional, cell-based. The conditions noted are these: Homo sapiens. The source holds these as a separate data set.
The subject of assay [18] is HEK293. Kind of assay: cells. Type of assay: functional, cell-based. The conditions noted are these: Homo sapiens. This is another data set of the same source.
A further assay has as its target Protein Rev (Human immunodeficiency virus type 1 group M subtype B (isolate WMJ22)(HIV-1), UniProt P05866). Kind of assay: HIV-1 Rev-RRE RNA binding disruptors, dose response, biochemical, protein-RNA interaction (AID 842). Set-up: species or system Human immunodeficiency virus 1.
Assay [19] has as its system BJ. Kind of assay: cytotoxicity toward BJ-TERT-LT-ST fibroblasts, dose response, cell-based, RAS-independent, luminescence (AID 1935).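 Also: BJ fibroblasts immortalized with TERT plus LT and ST oncogenes.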 Type of assay: functional. The conditions noted are these: Homo sapiens.
For assay [20], the target named is T2, Serine/threonine-protein phosphatase (Candida dubliniensis (strain CD36 / CBS 7987 / NCPF 3949 / NRRLY-17841) (Yeast), UniProt B9W6M3).
T2 sequence (B9W6M3 whole entry): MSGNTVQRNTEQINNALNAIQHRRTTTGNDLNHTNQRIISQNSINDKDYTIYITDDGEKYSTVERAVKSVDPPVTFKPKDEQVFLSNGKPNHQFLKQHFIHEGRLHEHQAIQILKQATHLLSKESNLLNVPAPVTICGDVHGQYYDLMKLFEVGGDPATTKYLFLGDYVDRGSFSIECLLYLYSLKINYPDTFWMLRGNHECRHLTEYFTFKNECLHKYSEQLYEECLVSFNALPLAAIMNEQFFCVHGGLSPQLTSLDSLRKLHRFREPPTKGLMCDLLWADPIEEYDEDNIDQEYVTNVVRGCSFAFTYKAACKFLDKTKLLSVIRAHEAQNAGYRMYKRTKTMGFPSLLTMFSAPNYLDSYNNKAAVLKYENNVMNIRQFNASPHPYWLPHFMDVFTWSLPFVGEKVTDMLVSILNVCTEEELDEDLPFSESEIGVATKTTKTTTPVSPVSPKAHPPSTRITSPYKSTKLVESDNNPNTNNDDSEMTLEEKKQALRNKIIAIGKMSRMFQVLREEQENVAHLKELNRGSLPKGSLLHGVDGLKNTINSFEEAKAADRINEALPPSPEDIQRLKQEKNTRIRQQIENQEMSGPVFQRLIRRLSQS
Put plainly: calcineurin pathway inhibitors in yeast reporter, dose response, S. cerevisiae, CDRE-lacZ, luminescence, secondary (AID 2388).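 Also: yeast reporter cells carrying a calcineurin-responsive lacZ construct stimulated with calcium chloride; luminescent beta-galactosidase reporter signal in whole cells rather than isolated phosphatase activity; potency for inhibition where a drop in reporter signal means calcineurin blockade.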 Type of assay: functional, cell-based.

Assay [21] is described as follows: C. albicans growth with fluconazole, confirmation, fluorescence, retest (AID 2467). Type of assay: functional, cell-based.
A short description of assay [22]: inhibitors of firefly luciferase expression or activity, dose response, H4 neuroglioma cells, luminescence (AID 1990). In kind it is functional, cell-based.
The nature of assay [23]: inhibitors of HIV Env-driven cell fusion, dose response, cherry-pick (AID 652057). Type of assay: functional, cell-based.
For assay [24], the target named is ATP-dependent molecular chaperone HSP82 (Candida albicans (strain WO-1) (Yeast), UniProt C4YTQ8). Put plainly: loss of DOC-induced GRE-beta-galactosidase reporter signal, dose response, Hsp90 inhibitor project, S. cerevisiae, luminescence (AID 2400).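 Also: beta-galactosidase luminescence from glucocorticoid response element reporter as proxy for Hsp90 function; inhibitor potency where signal loss means Hsp90 inhibition.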 In kind it is functional, cell-based.
Chain of ATP-dependent molecular chaperone HSP82 (C4YTQ8 whole entry): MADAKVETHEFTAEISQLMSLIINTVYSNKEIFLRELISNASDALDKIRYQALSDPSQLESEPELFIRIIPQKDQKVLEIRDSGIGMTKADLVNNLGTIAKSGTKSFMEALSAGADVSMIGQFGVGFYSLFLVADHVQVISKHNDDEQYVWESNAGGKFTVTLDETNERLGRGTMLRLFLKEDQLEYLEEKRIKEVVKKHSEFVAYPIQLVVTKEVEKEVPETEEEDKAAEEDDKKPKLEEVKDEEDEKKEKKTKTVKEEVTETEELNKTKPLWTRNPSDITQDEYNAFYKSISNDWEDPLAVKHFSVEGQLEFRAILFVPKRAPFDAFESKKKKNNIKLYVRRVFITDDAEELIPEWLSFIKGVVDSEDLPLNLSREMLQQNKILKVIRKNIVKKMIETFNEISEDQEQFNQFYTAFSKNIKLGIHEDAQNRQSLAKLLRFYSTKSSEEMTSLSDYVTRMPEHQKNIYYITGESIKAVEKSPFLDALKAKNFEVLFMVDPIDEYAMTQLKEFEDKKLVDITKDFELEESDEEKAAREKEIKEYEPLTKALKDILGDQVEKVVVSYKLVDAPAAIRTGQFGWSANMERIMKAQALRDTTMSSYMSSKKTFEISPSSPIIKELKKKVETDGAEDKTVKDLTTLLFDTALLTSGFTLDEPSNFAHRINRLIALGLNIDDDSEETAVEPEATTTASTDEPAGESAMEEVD
A short description of assay [25]: cytotoxicity toward DRD oncogenic fibroblasts, dose response, cell-based, non-viral oncogenic, luminescence (AID 1934). In kind it is functional. The conditions noted are these: Homo sapiens.
Assay [26] can be described thus: inhibitors of SNCA 5'UTR-driven reporter translation, confirmation, H4 neuroglioma cells, luminescence (AID 1988). Type of assay: functional, cell-based.
Assay [27] can be described thus: ZM109 Env clade C HIV-1 fusion inhibitors, dose response, HeLa effector, CEM target cells, luciferase, cherry-pick (AID 652058). In kind it is functional, cell-based.
Assay [28] in a line: cytotoxicity in HEK-293T NF-kB-Luc cells, dose response, cytotoxicity control for B/T-cell NF-kB inhibitor project, cell-based, uHTS hits (AID 489019).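 Also: IC50 reflects cytotoxicity as loss of cell viability.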 In kind it is functional.
Assay [29] is described as follows: HepG2 cell cytotoxicity, dose response, cytotoxicity control for non-replicating M. tuberculosis project (AID 489018). In kind it is functional. The conditions noted are these: Mycobacterium tuberculosis.
The target in assay [30] is T3, Microphthalmia-associated transcription factor (Homo sapiens, UniProt O75030).
T3 sequence (O75030 whole entry): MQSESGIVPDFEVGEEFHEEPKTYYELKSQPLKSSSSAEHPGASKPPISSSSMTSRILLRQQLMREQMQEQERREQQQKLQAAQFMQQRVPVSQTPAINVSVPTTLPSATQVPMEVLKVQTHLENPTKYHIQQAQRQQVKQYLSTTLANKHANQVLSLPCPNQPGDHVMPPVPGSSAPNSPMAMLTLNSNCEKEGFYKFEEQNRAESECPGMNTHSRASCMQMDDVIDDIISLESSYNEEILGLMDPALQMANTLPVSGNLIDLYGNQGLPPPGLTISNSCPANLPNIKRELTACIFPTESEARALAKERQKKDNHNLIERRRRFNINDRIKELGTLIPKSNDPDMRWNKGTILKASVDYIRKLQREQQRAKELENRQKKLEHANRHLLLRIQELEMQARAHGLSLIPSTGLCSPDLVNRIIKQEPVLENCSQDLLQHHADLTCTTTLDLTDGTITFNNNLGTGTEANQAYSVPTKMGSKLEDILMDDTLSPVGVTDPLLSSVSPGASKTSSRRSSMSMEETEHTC
Put plainly: TRPM1 promoter luciferase signal decrease, dose response, MITF inhibitor project, cell-based, SK-MEL-5, cherry-picked, set 3 (AID 493073).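 Also: SK-MEL-5 melanoma cells with luciferase driven by the MITF target TRPM1 promoter.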 Type of assay: functional.

In the next assay the test system is A-375. Put plainly: MITF: Counter assay: A375 proliferation Measured in Cell-Based System Using Plate Reader - 2084-03_Inhibitor_Dose_DryPowder_Activity. [Related pubchem assays (depositor defined):AID488944]. In kind it is functional. The conditions noted are these: Homo sapiens.
Assay [31] concerns the target Beta-2 adrenergic receptor (Homo sapiens, UniProt P07550). Put plainly: beta2AR agonists driving receptor internalization, dose response, cell-based, FAP fluorogen, flow cytometry, cherry pick 1 (AID 588763). In kind it is functional. For orientation: Flow cytometry measures light scatter and fluorescence of single cells or particles in a stream.

Chain of Beta-2 adrenergic receptor (P07550 whole entry): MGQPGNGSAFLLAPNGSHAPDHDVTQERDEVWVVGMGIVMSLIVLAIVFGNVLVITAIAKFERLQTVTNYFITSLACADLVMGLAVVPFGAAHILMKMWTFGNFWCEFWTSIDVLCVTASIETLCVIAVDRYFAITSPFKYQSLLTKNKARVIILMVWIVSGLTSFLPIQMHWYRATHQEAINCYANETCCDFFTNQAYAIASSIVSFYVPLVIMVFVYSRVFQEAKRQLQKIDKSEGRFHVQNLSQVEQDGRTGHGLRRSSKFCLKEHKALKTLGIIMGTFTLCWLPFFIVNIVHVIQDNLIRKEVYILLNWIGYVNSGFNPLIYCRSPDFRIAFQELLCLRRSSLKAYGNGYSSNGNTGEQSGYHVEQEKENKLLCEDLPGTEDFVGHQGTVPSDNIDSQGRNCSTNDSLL
Chain of Protein Rev (P05866 whole entry): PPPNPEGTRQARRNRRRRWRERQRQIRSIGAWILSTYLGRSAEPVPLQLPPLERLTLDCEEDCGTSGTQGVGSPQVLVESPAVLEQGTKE
Chain of Beta-galactosidase (Q8VNN2 whole entry): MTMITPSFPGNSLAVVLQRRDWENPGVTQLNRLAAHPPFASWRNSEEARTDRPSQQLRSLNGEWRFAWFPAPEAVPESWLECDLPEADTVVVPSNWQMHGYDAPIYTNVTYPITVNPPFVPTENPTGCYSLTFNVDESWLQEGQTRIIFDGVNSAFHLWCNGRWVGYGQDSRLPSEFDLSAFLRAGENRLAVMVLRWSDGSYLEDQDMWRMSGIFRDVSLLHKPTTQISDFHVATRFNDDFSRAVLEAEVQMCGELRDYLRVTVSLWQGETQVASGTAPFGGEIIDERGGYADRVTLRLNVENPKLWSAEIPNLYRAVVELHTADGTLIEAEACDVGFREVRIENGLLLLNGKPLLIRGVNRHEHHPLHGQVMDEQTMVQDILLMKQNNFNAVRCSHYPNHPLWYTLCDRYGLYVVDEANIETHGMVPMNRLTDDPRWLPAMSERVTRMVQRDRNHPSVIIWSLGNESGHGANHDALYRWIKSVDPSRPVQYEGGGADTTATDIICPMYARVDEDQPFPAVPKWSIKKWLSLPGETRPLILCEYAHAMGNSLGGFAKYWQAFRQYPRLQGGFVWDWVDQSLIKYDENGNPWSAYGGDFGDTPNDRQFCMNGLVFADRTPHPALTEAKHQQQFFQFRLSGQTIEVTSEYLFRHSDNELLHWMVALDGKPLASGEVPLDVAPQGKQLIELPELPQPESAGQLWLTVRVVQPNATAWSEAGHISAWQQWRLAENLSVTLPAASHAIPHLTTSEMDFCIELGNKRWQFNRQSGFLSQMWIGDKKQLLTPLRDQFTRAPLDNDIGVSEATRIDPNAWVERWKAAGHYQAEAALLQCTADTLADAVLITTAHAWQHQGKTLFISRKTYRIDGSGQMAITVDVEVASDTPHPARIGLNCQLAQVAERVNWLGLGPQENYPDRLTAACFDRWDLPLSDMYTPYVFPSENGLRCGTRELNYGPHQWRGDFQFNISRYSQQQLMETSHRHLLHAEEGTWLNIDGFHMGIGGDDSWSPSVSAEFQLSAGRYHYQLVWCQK

Regarding `CCC[N+](CC#Cc1ccccc1)(CCC)CC(=O)c1ccc(Cl)cc1`, the EC50 on Beta-galactosidase is > 40 µM (inactive). In addition, the IC50 in assay [1] is > 40 µM (not active).
Take `COc1ccc(/C=C/c2cc(-c3ccc(C)cc3)o[n+]2C)cc1`: the EC50 was 0.601 µM (inconclusive) in the assay with BJ [2]; 8.29 µM (active) in [3]; 0.733 µM (active) in assay [5]; 12.2 µM (active) in assay [8]; 0.778 µM (active) in [9]; 9.15 µM (active) in the assay with HEK293 [11]. The EC50 in [14] is > 160 µM (inactive); in the assay with BJ [15] it was 1.87 µM (inconclusive); in the assay on BJ [16] it was 3.43 µM (active); in the assay on BJ [19], 4.41 µM (inconclusive); in assay [20], > 180 µM (inactive); in assay [21], 0.576 µM (active). Moreover, the EC50 in [22] is 0.894 µM (active); in assay [24] it was > 160 µM (inactive); in assay [25] it was 5.02 µM (active); in assay [26], 2.27 µM (active). Besides, the CC50 in assay [4] was 2.38 µM (active); in assay [6] it was > 20 µM (active); in assay [29], 9.8 µM (active). The IC50 with HEK293 [7] was 8.34 µM (active); in the assay “cells” it was 5.99 µM (active); in the assay with Jurkat, 3.13 µM (active); in the assay on HEK293 [12] it was > 20 µM (inactive); in the assay on HEK293 [17], 5.25 µM (active); in the assay on HEK293 [18], 13.2 µM (active). Further, the IC50 was > 79.4 µM (not active) at Protein Rev and > 80 µM (inactive) in assay [28]. Besides, the AC50 was 0.76 µM (active) in the assay with INS1; 4.21 µM (active) in assay [10]; 7.88 µM (active) in assay [13]; 6.83 µM (active) in [23]; 3.33 µM (active) in [27].
Turning to `COc1ccccc1CNCC(O)Cn1c2ccccc2c2ccccc21` (stereo not given), the AC50 is 18.7 µM (active) in [30], 19.2 µM (active) in the assay on A-375 and 11.2 µM (active) with INS1. Further, the EC50 in assay [5] is 8.31 µM (active); in assay [9], 8.09 µM (active); in [31], 12.2 µM (inactive).
